The values below come from PubChem BioAssay (NCI).

Test systems include NCI-H23 lung; KM12 colon; K-562 leukemia; HT29 colon; A549 NSCLC; SNB-19 CNS; COLO 205 colon; SK-MEL-2 melanoma; MALME-3M melanoma; UACC-62 melanoma.
Holding throughout (assay): NCI anticancer screen, dose series, 48 h

SMILES strings stand for the structures. Where “and” joins values, the source holds several entries; their conditions need not be identical. Equal values may be shown once.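 Method: 48-hour compound exposure of cells in 96-well plates, five concentrations, linear interpolation of endpoints. The concentration for 50% growth inhibition is given as GI50. TGI marks complete inhibition of growth.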

`CN(Cc1ccccc1)C(=O)c1ccccc1C(=O)O`: the TGI in the test with NCI-H23 lung, in the test with KM12 colon, in the test on K-562 leukemia, in the test on HT29 colon, in the test on A549 NSCLC and with SNB-19 CNS was greater than 100 µM each time. Also, the TGI in the test with COLO 205 colon, with SK-MEL-2 melanoma and with MALME-3M melanoma was greater than 100 µM in each case.

`COc1cc(Cc2nccc3cc(OC)c(OC)cc23)c(C(C)=O)cc1OC`: the TGI is 219 µM and > 750 µM in the test with UACC-62 melanoma; 300 µM and > 750 µM with NCI-H23 lung; 300 µM in the test on KM12 colon; 300 µM in the test on K-562 leukemia; 300 µM and 626 µM in the test with HT29 colon; greater than 750 µM in the test on A549 NSCLC. Moreover, the TGI in the test with COLO 205 colon is 40.1 µM and 300 µM; with SK-MEL-2 melanoma, 300 µM; in the test on MALME-3M melanoma, 64.1 µM and 158 µM. The GI50 in the test with NCI-H23 lung was 67.1 µM; in the test with KM12 colon, 106 µM; in the test on K-562 leukemia it was 37.6 µM and 194 µM; in the test with HT29 colon it was 96.8 µM and 140 µM; with A549 NSCLC, greater than 750 µM; with COLO 205 colon, 5.36 µM. Also, the GI50 in the test on MALME-3M melanoma was 72.1 µM and 22.6 µM.

As for `CCOC(=O)N[C@@H]1C(CC(=O)OC)O[C@H]2OC(C)(C)O[C@H]21` (stereo not given in full), the TGI in the test on UACC-62 melanoma, with NCI-H23 lung, in the test on KM12 colon, with K-562 leukemia, with HT29 colon and with A549 NSCLC was greater than 100 µM throughout. For the same compound, the TGI in the test on COLO 205 colon, in the test on SK-MEL-2 melanoma and in the test with MALME-3M melanoma was greater than 100 µM throughout.

With `O=C(c1cccc2ccccc12)N1CCC(C2CCN(C(=O)c3cccc4ccccc34)CC2)CC1`, the TGI in the test with UACC-62 melanoma, in the test on NCI-H23 lung, in the test with KM12 colon, in the test on K-562 leukemia, in the test on HT29 colon and with A549 NSCLC was greater than 100 µM each time. The TGI in the test with COLO 205 colon, in the test with SK-MEL-2 melanoma and in the test on MALME-3M melanoma was greater than 100 µM each time.

For the compound `Cc1[nH]c(=O)nc2[nH][nH]c(=O)c12`, the TGI with UACC-62 melanoma, with NCI-H23 lung, with KM12 colon, in the test on K-562 leukemia, with HT29 colon and with A549 NSCLC was greater than 100 µM in each case. Moreover, the TGI with COLO 205 colon, in the test with SK-MEL-2 melanoma and in the test with MALME-3M melanoma was greater than 100 µM each time.

On to `OCC1OC(n2cnc3c2NC=NC[C@H]3O)C(Cl)C1O` (stereo not given in full), for which the TGI with UACC-62 melanoma, with NCI-H23 lung, in the test on KM12 colon, with HT29 colon, with A549 NSCLC and with SNB-19 CNS was greater than 100 µM each time. In addition, the TGI in the test on COLO 205 colon, in the test on SK-MEL-2 melanoma and in the test with MALME-3M melanoma was greater than 100 µM in each case.

`C=C1C(=O)O[C@H]2[C@H]1CC/C(COC(=O)NCCCCNC(=O)OC/C1=C/CC[C@@]3(C)O[C@H]3[C@H]3OC(=O)C(=C)[C@@H]3CC1)=C\CC[C@@]1(C)O[C@@H]21`: the GI50 in the test on UACC-62 melanoma was 0.753 µM; in the test on NCI-H23 lung it was 2.18 µM; in the test with KM12 colon, 3.18 µM; in the test on K-562 leukemia, 0.665 µM; in the test with HT29 colon, 0.605 µM; with A549 NSCLC it was 8.01 µM. Further, the GI50 in the test with COLO 205 colon is 0.466 µM; with SK-MEL-2 melanoma, 1.77 µM; in the test with MALME-3M melanoma, 0.452 µM. Further, the TGI in the test on UACC-62 melanoma was determined as 2.5 µM; in the test with NCI-H23 lung it was 5.54 µM; with KM12 colon, 10.5 µM; in the test with K-562 leukemia, 10.4 µM; with HT29 colon, 2.05 µM; in the test on A549 NSCLC, 23.1 µM. Besides, the TGI in the test on COLO 205 colon worked out at 1.8 µM; in the test on SK-MEL-2 melanoma, 4.89 µM; in the test with MALME-3M melanoma, 2.19 µM.

For `CC12OC(C(=O)C13CC3)C1C(=O)c3ccc4c(ccc5ccccc54)c3C(=O)C12` (stereo not given), the GI50 was 24.2 µM in the test on NCI-H23 lung; 22.9 µM in the test on KM12 colon; 47.6 µM with K-562 leukemia; 55.9 µM in the test with HT29 colon; 45 µM in the test on A549 NSCLC; 71.8 µM in the test with SNB-19 CNS. Further, the results for the GI50 with COLO 205 colon, in the test on SK-MEL-2 melanoma and in the test on MALME-3M melanoma were 32.2 µM, 53.1 µM and 14.2 µM, respectively. For the same compound, the TGI in the test with NCI-H23 lung was greater than 100 µM; with KM12 colon, 59.5 µM; in the test on K-562 leukemia, greater than 100 µM; in the test on HT29 colon it was greater than 100 µM; with A549 NSCLC, greater than 100 µM; in the test with SNB-19 CNS, greater than 100 µM. The TGI in the test with COLO 205 colon was greater than 100 µM; with SK-MEL-2 melanoma, greater than 100 µM; in the test with MALME-3M melanoma, 56.6 µM.

`Cc1cc2ncnn2cc1Nc1ncc2c(n1)n(C1CCOCC1)c(=O)n2C`: the GI50 with UACC-62 melanoma was 3.5 µM; in the test on NCI-H23 lung it was 14.3 µM; in the test with KM12 colon it was 14.5 µM; with K-562 leukemia, 16 µM; with HT29 colon it was 6.64 µM; with A549 NSCLC it was 7.22 µM. Also, the GI50 with COLO 205 colon was 4.93 µM; with SK-MEL-2 melanoma, 12.2 µM; in the test with MALME-3M melanoma it was 2.49 µM. Moreover, the TGI is 29.3 µM in the test with UACC-62 melanoma; greater than 100 µM in the test with NCI-H23 lung; greater than 100 µM in the test on KM12 colon; greater than 100 µM with K-562 leukemia; greater than 100 µM in the test with HT29 colon; greater than 100 µM in the test with A549 NSCLC. The TGI with COLO 205 colon is greater than 100 µM; in the test with SK-MEL-2 melanoma it was 71.5 µM; in the test on MALME-3M melanoma it was 29.3 µM.
